Reference: article PMC3701070 (PLoS ONE, 2013)

Columns and labels:
Test in all cases: Cell growth assay
Type in all cases: cell-based
22Rv1 = conditions: Homo sapiens, 72 h; 22Rv1, RAF WT, RAS WT, 3-day; read-out: gIC50
Procedure: (§1) Growth was measured with CellTiter-Glo® (Promega) reagent per the manufacturer’s protocol, using a PerkinElmer EnVision™ reader at t = 0 and 72 h. IC50 values for cell growth inhibition (gIC50) were determined.
(§2) (PDF) Click here for additional data file.

786-O = conditions: Homo sapiens, 786-0, 72 h, RAF WT, RAS WT, 3-day, read-out: gIC50
Procedure: as §1, §2

A101D = conditions: Homo sapiens, 72 h, BRAF(V600E), RAS WT, 3-day, read-out: gIC50
Procedure: as §1, §2

A172 = conditions: Homo sapiens, A 172, 72 h; A172, RAF WT, RAS WT, 3-day; read-out: gIC50
Procedure: as §1, §2

A431 = conditions: Homo sapiens, A-431, 72 h; A431, RAF WT, RAS WT, 3-day; read-out: gIC50
Procedure: as §1, §2

C32TG = conditions: Homo sapiens, 72 h, BRAF(V600E), RAS WT, 3-day, read-out: gIC50
Procedure: as §1, §2

CGTHW1 = conditions: Homo sapiens, CGTH-W-1, 72 h; CGTHW1, RAF WT, RAS WT, 3-day; read-out: gIC50
Procedure: as §1, §2

CHL-1 = conditions: Homo sapiens, 72 h; CHL-1, RAF WT, RAS WT, 3-day; read-out: gIC50
Procedure: as §1, §2

Colo 205 = conditions: Homo sapiens, 72 h; Colo 205, BRAF(V600E), RAS WT, 3-day; read-out: gIC50
Procedure: as §1, §2

Daudi = conditions: Homo sapiens, 72 h, RAF WT, RAS WT, 3-day, read-out: gIC50
Procedure: as §1, §2

GCT = conditions: Homo sapiens, 72 h, BRAF(V600E), RAS WT, 3-day, read-out: gIC50
Procedure: as §1, §2

HCC-1954 = conditions: Homo sapiens, HCC1954, 72 h; HCC-1954, RAF WT, RAS WT, 3-day; read-out: gIC50
Procedure: as §1, §2

HL-60 = conditions: Homo sapiens, 72 h; HL-60, RAF WT, RAS WT, 3-day; read-out: gIC50
Procedure: as §1, §2

JRT3-T35 = conditions: Homo sapiens, J-RT3-T3-5, 72 h; JRT3-T35, RAF WT, RAS WT, 3-day; read-out: gIC50
Procedure: as §1, §2

MALME-3M = conditions: Homo sapiens, 72 h, BRAF(V600E), RAS WT, 3-day, read-out: gIC50
Procedure: as §1, §2

MDA-MB-231 = conditions: Homo sapiens, 72 h; MDA-MB-231, BRAF(G464V), KRAS(G13D), 3-day; read-out: gIC50
Procedure: as §1, §2

NCI-H460 = conditions: Homo sapiens, 72 h; NCI-H460, RAF WT, KRAS(Q61H), 3-day; read-out: gIC50
Procedure: as §1, §2

NCI-H520 = conditions: Homo sapiens, 72 h; NCI-H520, RAF WT, RAS WT, 3-day; read-out: gIC50
Procedure: as §1, §2

NCI-H526 = conditions: Homo sapiens, 72 h; NCI-H526, RAF WT, RAS WT, 3-day; read-out: gIC50
Procedure: as §1, §2

NCI-H661 = conditions: Homo sapiens, 72 h; NCI-H661, RAF WT, RAS WT, 3-day; read-out: gIC50
Procedure: as §1, §2

NCI-N87 = conditions: Homo sapiens, 72 h; NCI-N87, RAF WT, RAS WT, 3-day; read-out: gIC50
Procedure: as §1, §2

OVCAR-4 = conditions: Homo sapiens, 72 h; OVCAR-4, RAF WT, RAS WT, 3-day; read-out: gIC50
Procedure: as §1, §2

OVCAR-5 = conditions: Homo sapiens, 72 h; OVCAR-5, RAF WT, RAS WT, 3-day; read-out: gIC50
Procedure: as §1, §2

RD-ES = conditions: Homo sapiens, 72 h, RAF WT, RAS WT, 3-day, read-out: gIC50
Procedure: as §1, §2

SCC-13 = conditions: Homo sapiens, 72 h; SCC-13, RAF WT, RAS WT, 3-day; read-out: gIC50
Procedure: as §1, §2

SCC-9 = conditions: Homo sapiens, 72 h; SCC-9, RAF WT, RAS WT, 3-day; read-out: gIC50
Procedure: as §1, §2

SH-4 = conditions: Homo sapiens, 72 h; SH-4, BRAF(V600E), RAS WT, 3-day; read-out: gIC50
Procedure: as §1, §2

SNU-449 = conditions: Homo sapiens, 72 h; SNU-449, RAF WT, RAS WT, 3-day; read-out: gIC50
Procedure: as §1, §2

SaOS2 = conditions: Homo sapiens, SAOS-2, 72 h; SaOS2, RAF WT, RAS WT, 3-day; read-out: gIC50
Procedure: as §1, §2

T-84 = conditions: Homo sapiens, T84, 72 h; T-84, RAF WT, KRAS(G13D), 3-day; read-out: gIC50
Procedure: as §1, §2

TE381.T = conditions: Homo sapiens, TE 381.T, 72 h, RAF WT, RAS WT, 3-day, read-out: gIC50
Procedure: as §1, §2

U251 = conditions: Homo sapiens, U-251, 72 h; U251, RAF WT, RAS WT, 3-day; read-out: gIC50
Procedure: as §1, §2

CC(C)(C)c1nc(-c2cccc(NS(=O)(=O)c3c(F)cccc3F)c2F)c(-c2ccnc(N)n2)s1 [dabrafenib]
IC50 (22Rv1): > 10 µM
IC50 (786-O): > 10 µM
IC50 (A101D): 0.009 µM
IC50 (A172): > 10 µM
IC50 (A431): > 10 µM
IC50 (C32TG): 0.001 µM
IC50 (CGTHW1): > 10 µM
IC50 (CHL-1): > 10 µM
IC50 (Colo 205): 0.007 µM
IC50 (Daudi): > 10 µM
IC50 (GCT): > 10 µM
IC50 (HCC-1954): > 10 µM
IC50 (HL-60): 2.18 µM
IC50 (JRT3-T35): 0.295 µM
IC50 (MALME-3M): 0.001 µM
IC50 (MDA-MB-231): > 10 µM
IC50 (NCI-H460): > 10 µM
IC50 (NCI-H520): > 10 µM
IC50 (NCI-H526): > 10 µM
IC50 (NCI-H661): > 10 µM
IC50 (NCI-N87): > 10 µM
IC50 (OVCAR-4): > 10 µM
IC50 (OVCAR-5): > 10 µM
IC50 (RD-ES): > 10 µM
IC50 (SCC-13): > 10 µM
IC50 (SCC-9): > 10 µM
IC50 (SH-4): 0.008 µM
IC50 (SNU-449): > 10 µM
IC50 (SaOS2): > 10 µM
IC50 (T-84): > 10 µM
IC50 (TE381.T): > 10 µM
IC50 (U251): > 10 µM
